Measurements taken from patent publication US6310176A, “Antimicrobially active polypeptides” (SBL Vaccin AB, priority 1996, dated 2001).
Like-named read-outs stand apart in the source and are kept apart here. Where no end group is shown, it is not given here.

Columns and labels:
Human red cells [1] = test: Red blood cell lysis; assay type: cell-based
Y. pseudotubercolosis = conditions: cecropin data from Hultmark et al. (1983); cited from earlier work
Bacillus megaterium BM11 [2] = conditions: B. megaterium BmII; cecropin data from Hultmark et al. (1983); cited from earlier work
Escherichia coli D21 [3] = conditions: E. coli D21; cecropin data from Hultmark et al. (1983); cited from earlier work
Human red cells [4] = conditions: cecropin data from Hultmark et al. (1983); cited from earlier work
[5] = system: Staphylococcus aureus Cowan1; conditions: S. aureus Cowan1; cecropin data from Hultmark et al. (1983); cited from earlier work
Bacillus megaterium BM11 [6] = test: Antimicrobial inhibition zone assay, B. megaterium; assay type: cell-based; conditions: B. megaterium BmII; inhibition zones on agarose plates
Method: (§1) Antimicrobial assay. The antibacterial activity was tested against Bacillus megaterium BM11, Staphylococcus aureus Cowahl, Streptococcus pyogenes b hemolytic group A, Pseudomonas aeruginosa ATCC 15692, Escherichia coli D21, E. coli D21e7, E. coli D21f1, E. coli D21f2 and E. coli D22, using an inhibition zone assay on LB broth/1% agarose plates seeded with 2×10^5 viable bacteria (Hultmark, D., Engstrom, A., Andersson, K., Steiner, H., Bennich, H. & Boman, H. G. (1983) Insect immunity. Attacin, a family of antibacterial proteins from Hyulophora cecropin, EMBO J. 2, 571-576). Fresh cultures of Candida albicans ATCC 10261 were inoculated in WB broth, pH 6.5, and grown at 37° C. to approximately 0.6 OD600. Before plating, cultures were diluted 300 fold and then incubated overnight at 37° C. in the presence of the test peptide, the concentration of which was established by amino acid analysis. Inhibition zones were measured and the lethal concentration (LC, the lowest concentration that inhibits the growth) was calculated from the diameter of the zones obtained in serial dilutions of the test substance by using the formula given in Hultmark, D., Engstrom, A., Andersson, K., Steiner, H., Bennich, H. & Boman, H. G. (1983) Insect immunity. […] Values are expressed as the mean of at least 5 experiments with a divergence of not more than one dilution step.

[7] = system: Staphylococcus aureus Cowan1; test: Antimicrobial inhibition zone assay, S. aureus; assay type: cell-based; conditions: inhibition zones on agarose plates
Method: as §1

Escherichia coli D21 [8] = test: Antimicrobial inhibition zone assay, E. coli D21; assay type: cell-based; conditions: Table 2
Method: as §1, with “step. […]” for “step.”

In the case of FIGSALKVLAGVLPSVISWVKQ-NH2 [MLP], the “Lethal concentration (lytic activity)” value (Human red cells [1]) was 0.5 µM.
For “Cecropin A: cecropin from insect hemolymph (KWKLFKKIEKVGQNIRDGIIKAGPAVAVVGQATQIAK; ends and bridges not checked; UniProt P01507 27-63, looked up)”, the Lethal concentration (Y. pseudotubercolosis) is listed as 0.5 µM, the Lethal concentration (Bacillus megaterium BM11 [2]) is listed as 0.5 µM and the Lethal concentration (Escherichia coli D21 [3]) is listed as 0.3 µM. The “Lethal concentration (lytic activity)” value (Human red cells [4]) was > 400 µM and the Lethal concentration [5] was > 200 µM.
In the case of `CC[C@H](C)[C@H](NC(=O)CN)C(=O)NCC(=O)N[C@@H](C)C(=O)N[C@H](C(=O)N[C@@H](CC(C)C)C(=O)N[C@@H](CCCCN)C(=O)N[C@H](C(=O)N[C@@H](CC(C)C)C(=O)N[C@H](C(=O)N[C@H](C(=O)NCC(=O)N[C@@H](CC(C)C)C(=O)N1CCC[C@H]1C(=O)N[C@@H](C)C(=O)N[C@@H](CC(C)C)C(=O)N[C@H](C(=O)N[C@@H](CO)C(=O)N[C@@H](Cc1c[nH]c2ccccc12)C(=O)N[C@H](C(=O)N[C@@H](CCCCN)C(=O)N[C@@H](CCCNC(=N)N)C(=O)N[C@@H](CCCCN)C(=O)N[C@@H](CCCNC(=N)N)C(=O)N[C@@H](CCC(N)=O)C(=O)N[C@@H](CCC(N)=O)C(N)=O)[C@@H](C)CC)[C@@H](C)CC)[C@@H](C)O)[C@@H](C)O)C(C)C)C(C)C` [Melittin], the Lethal concentration (Bacillus megaterium BM11 [6]) was 0.6 µM, the “Lethal concentration (lytic activity)” value (Human red cells [1]) was 0.9 µM and the Lethal concentration [7] was 0.2 µM. It also gave a Lethal concentration (Escherichia coli D21 [8]) of 0.8 µM.
For FLPLIGRVLSGIL-NH2 [Temporin A], the “Lethal concentration (lytic activity)” value (Human red cells [1]) was > 120 µM.
For LLPIVGNLLKSLL-NH2 [Temporin B], the “Lethal concentration (lytic activity)” value (Human red cells [1]) was > 120 µM.
